We go through 1 compound from ChEMBL document CHEMBL4311992, “Discovery of 3-(((9H-purin-6-yl)amino)methyl)-4,6-dimethylpyridin-2(1H)-one derivatives as novel tubulin polymerization inhibitors for treatment of cancer” (Eur J Med Chem, 2019).

The target in data set [1] is Tyrosine-protein kinase Lck (Homo sapiens) (UniProt P06239). Nature of the data set: Inhibition of recombinant full-length human activated Lck assessed as residual activity at 10 uM using KVEKIGEGTYGVVYK as substrate measured after 40 mins in presence of [gamma33P]ATP by scintillation counting method.
The target in data set [2] is Casein kinase II subunit alpha (Homo sapiens) (UniProt P68400). The data set is described as follows: Inhibition of recombinant full length human CK2alpha1 assessed as residual activity at 10 uM using RRRDDDSDDD as substrate measured after 40 mins in presence of [gamma33P]ATP by scintillation counting method.
Data set [3] concerns the target Serine/threonine-protein kinase D2 (Homo sapiens) (UniProt Q9BZL6). The data set is described as follows: Inhibition of recombinant full-length human PKD2 assessed as residual activity at 10 uM using KKLNRTLSVA as substrate measured after 40 mins in presence of [gamma33P]ATP by scintillation counting method.
Data set [4] concerns the target Fibroblast growth factor receptor 3 (Homo sapiens) (UniProt P22607). Nature of the data set: Inhibition of recombinant human FGFR3 (447 to 761 residues) assessed as residual activity at 10 uM using poly(Glu, Tyr) 4:1 as substrate measured after 40 mins in presence of [gamma33P]ATP by scintillation counting method.
The target in data set [5] is Serine/threonine-protein kinase VRK1 (Homo sapiens) (UniProt Q99986). The data set is described as follows: Inhibition of human VRK1 assessed as residual activity at 10 uM by radiometric method.
Another data set has as its system HCT-116. The data set is described as follows: Antitumor activity against human HCT116 cells xenografted in nude BALB/c mouse assessed as tumor growth inhibition at 40 mg/kg, po administered once daily for 4 weeks measured post-last dose relative to control. Type of data set: functional. To be noted: HCT-116, po, 672 h, read-out: TGI.
Data set [6] deals with Serine/threonine-protein kinase Sgk1 (Homo sapiens), O00141 [S422D]. Nature of the data set: Inhibition of recombinant human SGK S422D mutant (60 to end residues) assessed as residual activity at 10 uM using GRPRTSSFAEGKK as substrate measured after 40 mins in presence of [gamma33P]ATP by scintillation counting method.
Data set [7] can be described thus: Toxicity in nude BALB/c mouse assessed as change in AST level at 40 to 80 mg/kg, po once daily for 4 weeks measured post-last dose. Type of data set: organism-based. The settings on record: in vivo, 672 h.
Data set [8] has as its target Homeodomain-interacting protein kinase 1 (Homo sapiens) (UniProt Q86Z02). Nature of the data set: Inhibition of recombinant human activated HIPK1 (158 to 555 residues) assessed as residual activity at 10 uM using myelin basic protein as substrate measured after 40 mins in presence of [gamma33P]ATP by scintillation counting method.
A further data set has as its system SW-620. Nature of the data set: Induction of cell cycle arrest in human SW620 cells assessed as accumulation at G2/M phase after 24 hrs by propidium iodide-staining based flow cytometry. Type of data set: functional.
For data set [9], the species on record is Homo sapiens. Nature of the data set: Inhibition of recombinant human MAPKAPK2 A399G mutant (46 to end residues) assessed as residual activity at 10 uM using KKLNRTLSVA as substrate measured after 40 mins in presence of [gamma33P]ATP by scintillation counting method.
The target of data set [10] is Insulin-like growth factor 1 receptor (Homo sapiens) (UniProt P08069). The data set is described as follows: Inhibition of recombinant human activated IGF1R (959 to end residues) assessed as residual activity at 10 uM using KKKSPGEYVNIEFG as substrate measured after 40 mins in presence of [gamma33P]ATP by scintillation counting method.
Data set [11] has as its target Tyrosine-protein kinase ABL2 (Homo sapiens) (UniProt P42684). Nature of the data set: Inhibition of recombinant human ARG (38 to end residues) assessed as residual activity at 10 uM using EAIYAAPFAKKK as substrate measured after 40 mins in presence of [gamma33P]ATP by scintillation counting method.
The target in data set [12] is Casein kinase 2 (Homo sapiens) (UniProt P67870+P68400+P19784+Q8NEV1). The data set is described as follows: Inhibition of human CK2 assessed as residual activity at 10 uM. Type of data set: protein assay.
The target of data set [13] is TRAF2 and NCK-interacting protein kinase (Homo sapiens) (UniProt Q9UKE5). The data set is described as follows: Inhibition of human TNIK (1 to 367 residues) using RLGRDKYKTLRQIRQ as substrate measured after 40 mins in presence of [gamma33P]ATP by scintillation counting method. Set-up: scale not given: the % may be the effect or the level left.
Data set [14] is filed under the species Homo sapiens. The data set is described as follows: Inhibition of human activated Tec F514V mutant (174 to end residues) using EFPIYDFLPAKKK as substrate measured after 40 mins in presence of [gamma33P]ATP by scintillation counting method. The arrangement: scale not given: the % may be the effect or the level left.
In data set [15] the target is BMP-2-inducible protein kinase (Homo sapiens) (UniProt Q9NSY1). The data set is described as follows: Inhibition of recombinant human BIKepsilon assessed as residual activity at 10 uM using peptide substrate measured after 120 mins in presence of [gamma33P]ATP by scintillation counting method.
Data set [16] deals with Calcium/calmodulin-dependent protein kinase type 1G (Homo sapiens) (UniProt Q96NX5). Nature of the data set: Inhibition of human CaMK1gamma. Set-up: scale not given: the % may be the effect or the level left.
For data set [17], the target named is Serine/threonine-protein kinase Nek1 (Homo sapiens) (UniProt Q96PY6). Nature of the data set: Inhibition of recombinant human NEK1 (1 to 505 residues) assessed as residual activity at 10 uM using RLGRDKYKTLRQIRQ as substrate measured after 40 mins in presence of [gamma33P]ATP by scintillation counting method.
Data set [18] has as its target Testis-specific serine/threonine-protein kinase 4 (Homo sapiens) (UniProt Q6SA08). The data set is described as follows: Inhibition of recombinant full-length human TSSK4 assessed as residual activity at 10 uM using KKLNRTLSFAEPG as substrate measured after 40 mins in presence of [gamma33P]ATP by scintillation counting method.
Data set [19] has as its target Protein kinase C alpha type (Homo sapiens) (UniProt P17252). The data set is described as follows: Inhibition of recombinant full-length human PKCalpha assessed as residual activity at 10 uM using histone H1 as substrate measured after 40 mins in presence of [gamma33P]ATP by scintillation counting method.
In data set [20] the test system is Epidermal growth factor receptor (Homo sapiens), P00533 [L858R,T790M]. Nature of the data set: Inhibition of recombinant human EGFR T790M/L858R mutant (696 to end residues) assessed as residual activity at 10 uM using GGMEDIYFEFMGGKKK as substrate measured after 40 mins in presence of [gamma33P]ATP by scintillation counting method.
Data set [21] has as its target Receptor-type tyrosine-protein kinase FLT3 (Homo sapiens) (UniProt P36888). Nature of the data set: Inhibition of recombinant human Flt3 (564 to end residues) assessed as residual activity at 10 uM using EAIYAAPFAKKK as substrate measured after 40 mins in presence of [gamma33P]ATP by scintillation counting method.
For data set [22], the system named is Hepatocyte growth factor receptor (Homo sapiens), P08581 [Y1230C]. Nature of the data set: Inhibition of recombinant human MET A1209G/V1290L/Y1248C mutant (974 to end residues) assessed as residual activity at 10 uM using KKKGQEEEYVFIE as substrate measured after 40 mins in presence of [gamma33P]ATP by scintillation counting method.

The structures appear in SMILES notation.

Chain of Testis-specific serine/threonine-protein kinase 4 (Homo sapiens) (Q6SA08 whole entry): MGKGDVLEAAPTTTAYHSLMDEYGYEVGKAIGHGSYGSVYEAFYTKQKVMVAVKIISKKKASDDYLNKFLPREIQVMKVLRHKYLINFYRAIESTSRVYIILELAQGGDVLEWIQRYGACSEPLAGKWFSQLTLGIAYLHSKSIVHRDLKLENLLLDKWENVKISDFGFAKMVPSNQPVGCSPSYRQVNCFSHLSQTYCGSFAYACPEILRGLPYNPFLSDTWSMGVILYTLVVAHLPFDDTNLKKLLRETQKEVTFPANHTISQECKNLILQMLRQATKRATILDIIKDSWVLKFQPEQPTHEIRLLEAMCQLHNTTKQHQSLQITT
Chain of Casein kinase II subunit alpha (Homo sapiens) (P68400 whole entry, looked up): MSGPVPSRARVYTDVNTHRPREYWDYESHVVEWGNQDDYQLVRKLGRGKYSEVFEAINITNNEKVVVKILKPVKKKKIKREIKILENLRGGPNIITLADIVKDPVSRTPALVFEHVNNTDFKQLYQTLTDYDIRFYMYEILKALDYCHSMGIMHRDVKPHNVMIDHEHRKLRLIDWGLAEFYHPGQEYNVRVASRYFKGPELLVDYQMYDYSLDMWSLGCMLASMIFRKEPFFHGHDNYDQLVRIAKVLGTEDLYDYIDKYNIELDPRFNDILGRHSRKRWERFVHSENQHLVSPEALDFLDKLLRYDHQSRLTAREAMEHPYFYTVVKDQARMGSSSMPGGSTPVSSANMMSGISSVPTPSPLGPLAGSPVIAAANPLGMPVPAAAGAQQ
Chain of Receptor-type tyrosine-protein kinase FLT3 (Homo sapiens) (P36888 whole entry): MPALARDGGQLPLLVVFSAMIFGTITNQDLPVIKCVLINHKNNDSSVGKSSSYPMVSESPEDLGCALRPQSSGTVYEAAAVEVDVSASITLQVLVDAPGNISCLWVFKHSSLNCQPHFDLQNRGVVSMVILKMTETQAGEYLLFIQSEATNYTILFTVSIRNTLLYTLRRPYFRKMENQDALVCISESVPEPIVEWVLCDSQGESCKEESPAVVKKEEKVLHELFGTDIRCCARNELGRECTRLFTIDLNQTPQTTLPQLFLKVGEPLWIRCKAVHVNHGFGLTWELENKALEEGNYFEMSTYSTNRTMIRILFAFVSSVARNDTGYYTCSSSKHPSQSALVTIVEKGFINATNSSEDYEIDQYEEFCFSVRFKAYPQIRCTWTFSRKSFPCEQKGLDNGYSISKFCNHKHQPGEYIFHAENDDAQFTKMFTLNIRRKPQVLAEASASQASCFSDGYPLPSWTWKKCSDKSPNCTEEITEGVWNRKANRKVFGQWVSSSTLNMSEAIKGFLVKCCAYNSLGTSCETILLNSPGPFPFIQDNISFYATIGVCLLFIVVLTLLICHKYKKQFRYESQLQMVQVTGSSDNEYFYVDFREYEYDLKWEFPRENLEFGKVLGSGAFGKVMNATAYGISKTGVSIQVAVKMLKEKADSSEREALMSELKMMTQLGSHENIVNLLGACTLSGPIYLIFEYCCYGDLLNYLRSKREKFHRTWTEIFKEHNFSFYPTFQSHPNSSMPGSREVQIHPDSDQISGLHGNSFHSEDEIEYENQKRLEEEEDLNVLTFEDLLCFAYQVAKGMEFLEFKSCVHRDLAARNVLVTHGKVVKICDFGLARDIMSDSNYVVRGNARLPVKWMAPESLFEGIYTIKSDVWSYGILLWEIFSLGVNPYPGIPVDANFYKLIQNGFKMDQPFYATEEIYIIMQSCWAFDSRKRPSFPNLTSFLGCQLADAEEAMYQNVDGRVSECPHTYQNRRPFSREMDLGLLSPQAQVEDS
Chain of Tyrosine-protein kinase Lck (Homo sapiens) (P06239 2-509 limits assumed): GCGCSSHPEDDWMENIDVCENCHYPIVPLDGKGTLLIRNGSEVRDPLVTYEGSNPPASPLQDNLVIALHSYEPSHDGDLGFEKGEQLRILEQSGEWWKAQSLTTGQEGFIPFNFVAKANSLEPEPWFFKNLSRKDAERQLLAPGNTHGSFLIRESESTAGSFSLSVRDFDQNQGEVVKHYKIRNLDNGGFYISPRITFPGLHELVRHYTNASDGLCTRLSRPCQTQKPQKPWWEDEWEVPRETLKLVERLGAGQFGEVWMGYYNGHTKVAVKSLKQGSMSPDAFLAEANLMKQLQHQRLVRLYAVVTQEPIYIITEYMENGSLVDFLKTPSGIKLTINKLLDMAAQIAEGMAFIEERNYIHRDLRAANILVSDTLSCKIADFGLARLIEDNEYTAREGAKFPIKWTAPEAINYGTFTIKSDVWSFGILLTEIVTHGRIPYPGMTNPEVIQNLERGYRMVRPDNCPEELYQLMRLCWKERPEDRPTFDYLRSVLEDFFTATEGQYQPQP
Chain of Fibroblast growth factor receptor 3 (Homo sapiens) (P22607 23-806 limits assumed): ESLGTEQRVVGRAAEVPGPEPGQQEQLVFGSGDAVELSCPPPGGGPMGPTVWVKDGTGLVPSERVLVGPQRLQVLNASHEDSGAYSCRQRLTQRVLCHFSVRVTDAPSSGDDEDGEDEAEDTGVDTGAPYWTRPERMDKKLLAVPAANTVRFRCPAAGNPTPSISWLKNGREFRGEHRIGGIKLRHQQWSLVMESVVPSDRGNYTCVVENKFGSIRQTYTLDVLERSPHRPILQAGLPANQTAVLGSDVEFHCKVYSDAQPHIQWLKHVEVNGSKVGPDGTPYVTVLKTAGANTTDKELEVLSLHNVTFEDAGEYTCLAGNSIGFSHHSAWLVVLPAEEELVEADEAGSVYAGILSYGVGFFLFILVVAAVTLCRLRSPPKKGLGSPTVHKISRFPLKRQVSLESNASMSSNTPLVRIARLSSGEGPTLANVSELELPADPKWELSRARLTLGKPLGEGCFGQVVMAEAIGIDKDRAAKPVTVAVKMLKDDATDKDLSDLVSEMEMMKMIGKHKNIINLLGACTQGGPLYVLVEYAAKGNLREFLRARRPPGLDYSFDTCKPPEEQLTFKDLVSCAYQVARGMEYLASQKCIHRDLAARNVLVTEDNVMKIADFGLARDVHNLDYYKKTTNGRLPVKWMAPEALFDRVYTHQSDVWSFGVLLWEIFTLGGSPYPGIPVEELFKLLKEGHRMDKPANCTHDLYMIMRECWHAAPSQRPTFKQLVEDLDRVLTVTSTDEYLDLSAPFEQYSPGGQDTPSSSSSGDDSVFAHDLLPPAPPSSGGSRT
Chain of Serine/threonine-protein kinase VRK1 (Homo sapiens) (Q99986 whole entry): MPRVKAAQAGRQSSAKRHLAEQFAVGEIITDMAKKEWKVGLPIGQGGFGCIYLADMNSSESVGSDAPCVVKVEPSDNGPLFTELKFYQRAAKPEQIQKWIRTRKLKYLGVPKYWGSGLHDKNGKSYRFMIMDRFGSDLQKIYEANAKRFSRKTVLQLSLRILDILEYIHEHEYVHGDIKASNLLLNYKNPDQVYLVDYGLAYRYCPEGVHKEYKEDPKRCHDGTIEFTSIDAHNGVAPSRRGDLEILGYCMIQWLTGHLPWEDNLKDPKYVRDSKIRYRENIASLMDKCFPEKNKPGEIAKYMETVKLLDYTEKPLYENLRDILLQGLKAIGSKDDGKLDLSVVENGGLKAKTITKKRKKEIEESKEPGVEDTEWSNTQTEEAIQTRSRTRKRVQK
Chain of Calcium/calmodulin-dependent protein kinase type 1G (Homo sapiens) (Q96NX5 whole entry, the tested form may be a part): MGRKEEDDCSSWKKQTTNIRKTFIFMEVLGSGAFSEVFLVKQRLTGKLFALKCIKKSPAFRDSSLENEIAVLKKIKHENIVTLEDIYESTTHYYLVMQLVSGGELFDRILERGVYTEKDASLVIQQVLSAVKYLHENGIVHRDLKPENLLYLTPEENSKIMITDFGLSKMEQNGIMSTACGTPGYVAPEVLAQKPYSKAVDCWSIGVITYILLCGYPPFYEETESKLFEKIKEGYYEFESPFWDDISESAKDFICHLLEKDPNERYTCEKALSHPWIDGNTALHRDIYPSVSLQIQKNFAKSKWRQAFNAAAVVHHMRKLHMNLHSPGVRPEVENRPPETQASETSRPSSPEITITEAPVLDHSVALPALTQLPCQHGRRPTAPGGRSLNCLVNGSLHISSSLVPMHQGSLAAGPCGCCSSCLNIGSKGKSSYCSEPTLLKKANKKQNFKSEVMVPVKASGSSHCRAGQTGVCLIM
Chain of Serine/threonine-protein kinase Sgk1 (Homo sapiens), O00141 [S422D] (O00141 whole entry S422D): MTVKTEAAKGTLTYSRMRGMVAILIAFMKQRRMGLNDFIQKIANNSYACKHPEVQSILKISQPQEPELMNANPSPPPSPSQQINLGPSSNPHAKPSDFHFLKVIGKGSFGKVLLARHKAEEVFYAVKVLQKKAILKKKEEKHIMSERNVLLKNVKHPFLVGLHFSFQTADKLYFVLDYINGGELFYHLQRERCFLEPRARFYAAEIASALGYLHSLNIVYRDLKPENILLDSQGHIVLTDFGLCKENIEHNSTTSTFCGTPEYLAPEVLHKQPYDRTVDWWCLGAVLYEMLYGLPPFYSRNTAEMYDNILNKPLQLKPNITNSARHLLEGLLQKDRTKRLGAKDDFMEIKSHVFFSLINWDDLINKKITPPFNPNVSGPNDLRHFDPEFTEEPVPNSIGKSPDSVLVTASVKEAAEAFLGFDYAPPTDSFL

As for `Cc1cc(C)c(CNc2nc(Cl)nc3c2ncn3C2CCCC2)c(=O)[nH]1`, the Activity in data set [1] came out at 102%; in data set [2], 88%; in data set [3] it was 120%; in data set [4], 94.5%; in data set [5] it was 92.5%; in data set [6] it was 136%. For the same compound, the Activity result in [7] is “Non-Toxic”; in [8] it was 100%; in the data set with SW-620, “Dose-dependent effect”; in the data set filed under Homo sapiens [9], 124%; in data set [10], 90.5%; in [11], 115%. The Activity is 111% in [12]; 108% in [13]; 96.5% in the data set filed under Homo sapiens [14]; 83% in data set [15]; 126% in data set [16]; 114% in data set [17]. The Activity turned out to be 138% in data set [18]; 88.5% in [19]; 96.5% in [20]; 130% in data set [21]; 110% in data set [22]. In addition, the inhibition in vivo at 40 mg/kg in the data set on HCT-116 worked out at 39.9%.
